According to patent publication US11292796B2 (SIGNAL PHARMACEUTICALS, LLC, priority 2008, dated 2022):

Target: T1, mTOR (Homo sapiens, UniProt P42345)
T1 construct: purchased Invitrogen PR8683A
Assay: mTOR HTR-FRET assay
Format: biochemical
Conditions: read-out: Act. Level (IC50 in mTor HTR-FRET assay)
Outline: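 Test compounds, taken from 10 mM DMSO stocks and diluted, were mixed with mTOR enzyme (0.200 μg/mL) in Tris buffer pH 7.4 with 100 mM NaCl, 0.1% Tween-20 and 1 mM DTT. ATP/substrate addition initiated the reaction, alongside compound-free controls.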

T1 sequence (P42345 1360-2549 limits assumed): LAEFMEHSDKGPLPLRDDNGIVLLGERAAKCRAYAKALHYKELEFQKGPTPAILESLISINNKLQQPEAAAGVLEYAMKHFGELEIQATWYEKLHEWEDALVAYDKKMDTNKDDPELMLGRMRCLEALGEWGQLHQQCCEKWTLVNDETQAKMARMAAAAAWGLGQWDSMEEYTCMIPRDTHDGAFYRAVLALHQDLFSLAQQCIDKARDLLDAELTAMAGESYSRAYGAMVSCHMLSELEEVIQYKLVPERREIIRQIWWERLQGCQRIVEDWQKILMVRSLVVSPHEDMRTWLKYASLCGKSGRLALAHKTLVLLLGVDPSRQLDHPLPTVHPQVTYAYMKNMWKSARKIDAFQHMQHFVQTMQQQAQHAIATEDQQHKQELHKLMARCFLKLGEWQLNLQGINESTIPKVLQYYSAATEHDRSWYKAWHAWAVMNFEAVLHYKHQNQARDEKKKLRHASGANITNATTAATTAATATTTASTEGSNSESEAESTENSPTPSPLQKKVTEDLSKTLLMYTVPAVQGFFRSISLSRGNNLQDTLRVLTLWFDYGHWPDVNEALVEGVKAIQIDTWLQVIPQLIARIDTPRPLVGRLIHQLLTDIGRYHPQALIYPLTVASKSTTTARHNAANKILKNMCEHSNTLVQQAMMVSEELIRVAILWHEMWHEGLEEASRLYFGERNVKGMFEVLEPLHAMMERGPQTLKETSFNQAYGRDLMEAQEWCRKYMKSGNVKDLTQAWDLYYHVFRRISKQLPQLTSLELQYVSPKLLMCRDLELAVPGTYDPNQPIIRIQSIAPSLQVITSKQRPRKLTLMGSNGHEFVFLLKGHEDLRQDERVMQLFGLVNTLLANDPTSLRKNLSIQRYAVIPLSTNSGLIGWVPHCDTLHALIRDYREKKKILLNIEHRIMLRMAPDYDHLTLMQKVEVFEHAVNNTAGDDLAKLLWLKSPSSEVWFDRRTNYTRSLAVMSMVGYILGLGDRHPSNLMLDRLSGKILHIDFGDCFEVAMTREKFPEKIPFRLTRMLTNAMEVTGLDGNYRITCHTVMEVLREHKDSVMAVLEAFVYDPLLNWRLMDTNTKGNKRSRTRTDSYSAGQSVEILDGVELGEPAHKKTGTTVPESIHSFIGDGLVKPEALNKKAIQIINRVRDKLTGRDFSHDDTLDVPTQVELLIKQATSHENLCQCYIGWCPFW

Compound | IC50 [nM]
Cc1c(-c2cnc3c(n2)N(CCC2CCOCC2)C(=O)CN3)ccc(-c2nc[nH]n2)c1F [Example 248, 7-(3-fluoro-2-methyl-4-(1H-1,2,4-triazol-3-yl)phenyl)-1-(2-(tetrahydro-2H-pyran-4-yl)ethyl)-3,4-dihydropyrazino[2,3-b]pyrazin-2(1H)-one] | 0.005 to 250
CC(C)(O)c1ccc(-c2cnc3c(n2)N(CC2CCCC2)C(=O)CN3)cn1 [Example 251, 1-(cyclopentylmethyl)-7-(6-(2-hydroxypropan-2-yl)pyridin-3-yl)-3,4-dihydropyrazino[2,3-b]pyrazin-2(1H)-one] | 500 to 1000
COCCN1C(=O)CNc2ncc(-c3ccc(C(C)(C)O)cc3)nc21 [Example 252, 7-(4-(2-hydroxypropan-2-yl)phenyl)-1-(2-methoxyethyl)-3,4-dihydropyrazino[2,3-b]pyrazin-2(1H)-one] | 1000 to 10000
C[C@H](O)c1ccc(-c2cnc3c(n2)N(CCC2CCOCC2)C(=O)CN3)cn1 [Example 253, (S)-7-(6-(1-hydroxyethyl)pyridin-3-yl)-1-(2-(tetrahydro-2H-pyran-4-yl)ethyl)-3,4-dihydropyrazino[2,3-b]pyrazin-2(1H)-one] | 0.005 to 250
C[C@@H](O)c1ccc(-c2cnc3c(n2)N(CCC2CCOCC2)C(=O)CN3)cn1 [Example 254, (R)-7-(6-(1-hydroxyethyl)pyridin-3-yl)-1-(2-(tetrahydro-2H-pyran-4-yl)ethyl)-3,4-dihydropyrazino[2,3-b]pyrazin-2(1H)-one] | 0.005 to 250
CC(C)(O)c1ccc(-c2cnc3c(n2)N(Cc2ccc(C(F)(F)F)cc2)C(=O)CN3)cn1 [Example 257, 7-(6-(2-hydroxypropan-2-yl)pyridin-3-yl)-1-(4-(trifluoromethyl)benzyl)-3,4-dihydropyrazino[2,3-b]pyrazin-2(1H)-one] | 0.005 to 250
CC(C)(O)c1ccc(-c2cnc3c(n2)N(Cc2cccc(C(F)(F)F)c2)C(=O)CN3)cn1 [Example 258, 7-(6-(2-hydroxypropan-2-yl)pyridin-3-yl)-1-(3-(trifluoromethyl)benzyl)-3,4-dihydropyrazino[2,3-b]pyrazin-2(1H)-one] | 0.005 to 250
COCCCN1C(=O)CNc2ncc(-c3ccc(C(C)(C)O)nc3)nc21 [Example 259, 7-(6-(2-hydroxypropan-2-yl)pyridin-3-yl)-1-(3-methoxypropyl)-3,4-dihydropyrazino[2,3-b]pyrazin-2(1H)-one] | 0.005 to 250
Cc1cc(-c2nc[nH]n2)ncc1-c1cnc2c(n1)N(CCC1CCOCC1)C(=O)CN2 [Example 260, 7-(4-methyl-6-(1H-1,2,4-triazol-3-yl)pyridin-3-yl)-1-(2-(tetrahydro-2H-pyran-4-yl)ethyl)-3,4-dihydropyrazino[2,3-b]pyrazin-2(1H)-one] | 0.005 to 250
CNc1nc2c(C)cc(-c3cnc4c(n3)N(CC3CCOCC3)C(=O)CN4)cc2[nH]1 [Example 263, 7-(4-methyl-2-(methylamino)-1H-benzo[d]imidazol-6-yl)-1-((tetrahydro-2H-pyran-4-yl)methyl)-3,4-dihydropyrazino[2,3-b]pyrazin-2(1H)-one] | 0.005 to 250
Cc1cc(-c2cnc3c(n2)N(CC2CCOCC2)C(=O)CN3)cc2[nH]c(N)nc12 [Example 264, 7-(2-amino-4-methyl-1H-benzo[d]imidazol-6-yl)-1-((tetrahydro-2H-pyran-4-yl)methyl)-3,4-dihydropyrazino[2,3-b]pyrazin-2(1H)-one] | 0.005 to 250
C[C@H]1Nc2ncc(-c3ccc(C(C)(C)O)nc3)nc2N(CCC2CCOCC2)C1=O [Example 266, (R)-7-(6-(2-hydroxypropan-2-yl)pyridin-3-yl)-3-methyl-1-(2-(tetrahydro-2H-pyran-4-yl)ethyl)-3,4-dihydropyrazino[2,3-b]pyrazin-2(1H)-one] | 500 to 1000
C[C@@H]1Nc2ncc(-c3ccc(C(C)(C)O)nc3)nc2N(CCC2CCOCC2)C1=O [Example 267, (S)-7-(6-(2-hydroxypropan-2-yl)pyridin-3-yl)-3-methyl-1-(2-(tetrahydro-2H-pyran-4-yl)ethyl)-3,4-dihydropyrazino[2,3-b]pyrazin-2(1H)-one] | 500 to 1000
Cc1cc(-c2cnc3c(n2)N(CCC2CCOCC2)C(=O)CN3)cc2[nH]c(N)nc12 [Example 269, 7-(2-amino-4-methyl-1H-benzo[d]imidazol-6-yl)-1-(2-(tetrahydro-2H-pyran-4-yl)ethyl)-3,4-dihydropyrazino[2,3-b]pyrazin-2(1H)-one] | 0.005 to 250
Cc1nc(-c2nc[nH]n2)ccc1-c1cnc2c(n1)N(CCO)C(=O)CN2 [Example 274, 1-(2-hydroxyethyl)-7-(2-methyl-6-(1H-1,2,4-triazol-3-yl)pyridin-3-yl)-3,4-dihydropyrazino[2,3-b]pyrazin-2(1H)-one] | 0.005 to 250
